Laboratory results as given in patent US20080125400A1, “USE OF PHOSPHOENOLPYRUVATE DERIVATIVES” (priority 2006, published 2008).

Test system: troponin I
Experiment: Randomized double-blind trial of PEPA in blood-based STH cardioplegia; blood troponin I by immunoassay (ADVIA Centaur)
Assay type: in vivo, human
Conditions: patients undergoing coronary artery bypass surgery; versus STH without PEPA
Experimental: A study was carried out to determine the effect of PEPA on heart tissue in patients with ischemic heart disease undergoing coronary artery bypass surgery. The study was a randomized, double-blind, parallel group, comparative trial that compared the effect during surgery (and shortly thereafter) of the presence or absence of a single dose of PEPA in blood-based STH.
The patients were assigned randomly to one of two groups. For the first group, PEPA was made up in a concentration of 495 μM/L as a single dose added to blood-based STH (“PEPA+STH”). Normal blood-based STH (without PEPA) was administered to the second group. There were 37 patients in each group.
PEPA was made up under sterile conditions in 40 ml of Ringer's solution and then filtered using a sterile 0.22 μm filter to sterilize the solution. Ten mL aliquots of the sterile PEPA solution were measured and added to each of three 1 L bags of Ringer's solution under sterile conditions providing a Ringer's solution containing 990 μM/L PEPA. […]
A sample of blood was collected from each patient at regular intervals during surgery (at the time of anaesthesia and at 6 and 12 hours after the start of surgery) and after surgery (at 24, 48 and 72 hours after the start of surgery). Each sample was analyzed by an immunoassay method using an ADVIA Centaur® system to determine the level of troponin I. […]

C=C(OP(=O)(O)O)C(N)=O [PEPA, 2-(dihydroxyphosphoryloxy)prop-2-enoic amide]
overall concentration of troponin I in the blood over the period studied: markedly reduces
